Assay results as given in PubChem BioAssay AID330 (DTP/NCI, 2004).
Values joined by “and” are separate entries in the source; they are usually repeats but may differ in a detail not shown here. Identical values can stand only once. Toxic doses and inconclusive results are not listed. How the source made its calls: active means survival T/C of 150% or more; inactive means T/C below 125% in these data.

Test system: P388 leukemia ip, CD2F1 mice, survival T/C
Test: NCI In Vivo Anticancer Drug Screen. Data for tumor model P388 Leukemia (intraperitoneal) in CD2F1 (CDF1) mice
Details: endpoint: median survival time, higher = longer survival
Procedure, shortened: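 Mice carrying the transplanted tumor received test compound or vehicle. Survival was recorded in each group, and the value is the treated-group measurement divided by that of the vehicle-treated control group.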

[1] = dose: 100.0 mg/kg/injection, schedule: Q04DX002 (ip), vehicle: Klucel (hydroxypropylcellulose) (HPC)
[2] = dose: 100.0 mg/kg/injection, schedule: Q04DX003 (ip), vehicle: Klucel (hydroxypropylcellulose) (HPC)
[3] = dose: 200.0 mg/kg/injection, schedule: Q04DX003 (ip), vehicle: Klucel (hydroxypropylcellulose) (HPC)
[4] = dose: 400.0 mg/kg/injection, schedule: Q04DX003 (ip), vehicle: Klucel (hydroxypropylcellulose) (HPC)
[5] = dose: 50.0 mg/kg/injection, schedule: Q01DX005 (ip), vehicle: saline with Tween-80
[6] = dose: 100.0 mg/kg/injection, schedule: Q01DX005 (ip), vehicle: saline with Tween-80
[7] = dose: 200.0 mg/kg/injection, schedule: Q01DX005 (ip), vehicle: saline with Tween-80
[8] = dose: 60.0 mg/kg/injection, schedule: Q01DX005 (ip), vehicle: saline with Tween-80
[9] = dose: 120.0 mg/kg/injection, schedule: Q01DX005 (ip), vehicle: saline with Tween-80
[10] = dose: 240.0 mg/kg/injection, schedule: Q01DX005 (ip), vehicle: saline with Tween-80
[11] = dose: 100.0 mg/kg/injection, schedule: Q04DX003 (ip), vehicle: saline
[12] = dose: 100.0 mg/kg/injection, schedule: Q04DX003 (ip), vehicle: saline with Tween-80
[13] = dose: 200.0 mg/kg/injection, schedule: Q04DX003 (ip), vehicle: saline with Tween-80
[14] = dose: 400.0 mg/kg/injection, schedule: Q04DX003 (ip), vehicle: saline with Tween-80
[15] = dose: 50.0 mg/kg/injection, schedule: Q01DX009 (ip), vehicle: Klucel (hydroxypropylcellulose) (HPC)
[16] = dose: 50.0 mg/kg/injection, schedule: Q01DX005 (ip), vehicle: Klucel (hydroxypropylcellulose) (HPC)
[17] = dose: 100.0 mg/kg/injection, schedule: Q01DX005 (ip), vehicle: Klucel (hydroxypropylcellulose) (HPC)
[18] = dose: 200.0 mg/kg/injection, schedule: Q01DX005 (ip), vehicle: Klucel (hydroxypropylcellulose) (HPC)

Measured: T/C

CCCCCCCCCCCCOC(=O)/C=C\C(=O)NC(N)=O
inactive: [1] 117 % of control | dose: 200.0 mg/kg/injection, schedule: Q04DX002 (ip), vehicle: Klucel (hydroxypropylcellulose) (HPC) 123 % of control

CCOc1ccc(/C=C/c2ccc3ccccc3[n+]2C)cc1OCC
inactive: dose: 0.78 mg/kg/injection, schedule: Q01DX009 (ip), vehicle: saline with Tween-80 102 % of control | dose: 1.56 mg/kg/injection, schedule: Q01DX009 (ip), vehicle: saline with Tween-80 111 % of control

O=C1/C(=C/c2ccccc2[N+](=O)[O-])Cc2ccccc21
inactive: dose: 50.0 mg/kg/injection, schedule: Q01DX009 (ip), vehicle: saline with Tween-80 103 % of control | dose: 100.0 mg/kg/injection, schedule: Q01DX009 (ip), vehicle: saline with Tween-80 94 % of control | dose: 200.0 mg/kg/injection, schedule: Q01DX009 (ip), vehicle: saline with Tween-80 103 % of control | dose: 400.0 mg/kg/injection, schedule: Q01DX009 (ip), vehicle: saline with Tween-80 97 % of control

Fc1ccc(CN2COc3c(ccc4cccnc34)C2)c(F)c1
inactive: [2] 95 % of control | [3] 112 % of control | [4] 89 % of control

CC(C(=O)c1ccc(O)cc1)C1(O)C(=O)Nc2ccccc21 (stereo unspecified)
inactive: [5] 98 % of control | [6] 100 % of control | [7] 101 % of control

COc1nc(NC2OC(COC(C)=O)C(OC(C)=O)C(OC(C)=O)C2OC(C)=O)c2ccoc2n1 (stereo unspecified)
inactive: [8] 100 % of control | [9] 101 % of control | [10] 98 % of control

Cc1ccc(Cl)cc1S
inactive: dose: 50.0 mg/kg/injection, schedule: Q04DX003 (ip), vehicle: saline 95 % of control | [11] 95 % of control

CC1(C)C=Cc2cc3c(cc2O1)OC[C@H]1c2cc4c(cc2O[C@@H]31)OCO4
inactive: dose: 25.0 mg/kg/injection, schedule: Q04DX002 (ip), vehicle: Klucel (hydroxypropylcellulose) (HPC) 97 % of control | dose: 50.0 mg/kg/injection, schedule: Q04DX002 (ip), vehicle: Klucel (hydroxypropylcellulose) (HPC) 100 % of control | [1] 100 % of control | dose: 400.0 mg/kg/injection, schedule: Q04DX002 (ip), vehicle: Klucel (hydroxypropylcellulose) (HPC) 89 % of control

Cc1c(C)c(C)c(C(=O)c2ccccc2C(=O)NCCSC(C)(C)C)c(C)c1C
inactive: dose: 30.0 mg/kg/injection, schedule: Q01DX005 (ip), vehicle: Klucel (hydroxypropylcellulose) (HPC) 98 % of control | dose: 60.0 mg/kg/injection, schedule: Q01DX005 (ip), vehicle: Klucel (hydroxypropylcellulose) (HPC) 93 % of control and 96 % of control | dose: 120.0 mg/kg/injection, schedule: Q01DX005 (ip), vehicle: Klucel (hydroxypropylcellulose) (HPC) 92 % of control | dose: 240.0 mg/kg/injection, schedule: Q01DX005 (ip), vehicle: Klucel (hydroxypropylcellulose) (HPC) 87 % of control

CCOC(=O)C1=C(SC)SC(C(=O)OCC)C2C=C(C)C=CN12 (stereo unspecified)
inactive: dose: 15.0 mg/kg/injection, schedule: Q01DX005 (ip), vehicle: Klucel + Tween-80 97 % of control | dose: 30.0 mg/kg/injection, schedule: Q01DX005 (ip), vehicle: Klucel + Tween-80 108 % of control | dose: 60.0 mg/kg/injection, schedule: Q01DX005 (ip), vehicle: Klucel + Tween-80 104 % of control and 96 % of control

Clc1ncnc2c1ncn2C1CCCCO1 (stereo unspecified)
inactive: dose: 50.0 mg/kg/injection, schedule: Q04DX003 (ip), vehicle: saline with Tween-80 104 % of control | dose: 100.0 mg/kg/injection, schedule: Q01DX009 (ip), vehicle: other 95 % of control | [12] 100 % of control | dose: 200.0 mg/kg/injection, schedule: Q01DX009 (ip), vehicle: other 95 % of control | [13] 100 % of control | [14] 100 % of control

O=S(=O)(CC(O)C(Cl)(Cl)Cl)N1CCCCC1 (stereo unspecified)
inactive: [15] 101 % of control | dose: 100.0 mg/kg/injection, schedule: Q01DX009 (ip), vehicle: Klucel (hydroxypropylcellulose) (HPC) 95 % of control | dose: 200.0 mg/kg/injection, schedule: Q01DX009 (ip), vehicle: Klucel (hydroxypropylcellulose) (HPC) 100 % of control

CCOC(=O)N1CCN(C(=O)c2nc3ccccc3[nH]2)CC1
inactive: [16] 99 % of control | [17] 101 % of control | [18] 95 % of control

CC(=O)O[C@]1(C(C)=O)CC[C@H]2[C@@H]3C[C@H](C)C4=CC(=O)NCC[C@]4(C)[C@H]3CC[C@@]21C
inactive: dose: 50.0 mg/kg/injection, schedule: Q01DX005 (ip), vehicle: Klucel + Tween-80 98 % of control | dose: 100.0 mg/kg/injection, schedule: Q01DX005 (ip), vehicle: Klucel + Tween-80 93 % of control | dose: 200.0 mg/kg/injection, schedule: Q01DX005 (ip), vehicle: Klucel + Tween-80 94 % of control

C#CCSc1n[nH]c(=O)n1C1CCCCC1
inactive: [8] 99 % of control | [9] 106 % of control | [10] 106 % of control

O=NN1CC23C=CCCC2(CCCC3)C1 (stereo unspecified)
inactive: [2] 113 % of control | [3] 114 % of control | [4] 104 % of control

O=C1CN(c2cccc(C(F)(F)F)c2)C(=O)CN1/N=C/c1cccnc1
inactive: [5] 94 % of control | [6] 97 % of control | [7] 94 % of control

COc1ccc(C2C3CCCC(C3=O)C(c3ccc(OC)cc3)N2C)cc1 (stereo unspecified)
inactive: [11] 99 % of control | dose: 200.0 mg/kg/injection, schedule: Q04DX003 (ip), vehicle: saline 97 % of control | dose: 400.0 mg/kg/injection, schedule: Q04DX003 (ip), vehicle: saline 96 % of control

CC(C)(Nc1ccccc1)C(=O)OC(C)(C)C(=O)Nc1ccccc1
inactive: [5] 90 % of control | [6] 91 % of control | [7] 91 % of control

CSC(=S)c1c(C)cccc1C
inactive: [12] 110 % of control | [13] 100 % of control | [14] 113 % of control

C(=C1\Oc2ccccc2N=C1OCCN1CCOCC1)/c1ccccc1
inactive: [2] 97 % of control | [3] 99 % of control | [4] 98 % of control

CC1=CSC2=NCCCCN12
inactive: dose: 6.25 mg/kg/injection, schedule: Q01DX009 (ip), vehicle: saline 91 % of control | dose: 12.5 mg/kg/injection, schedule: Q01DX009 (ip), vehicle: saline 93 % of control | dose: 25.0 mg/kg/injection, schedule: Q01DX009 (ip), vehicle: saline 92 % of control

CCC(=O)Nc1ccc(C(=O)NCCN(CC)CC)cc1
inactive: [16] 105 % of control | [17] 104 % of control | [18] 100 % of control

CC(=O)Nc1ccc(-c2ccc(NC(C)=O)cc2)cc1
inactive: dose: 50.0 mg/kg/injection, schedule: Q01DX009 (ip), vehicle: saline 105 % of control | dose: 100.0 mg/kg/injection, schedule: Q01DX009 (ip), vehicle: saline 92 % of control | dose: 200.0 mg/kg/injection, schedule: Q01DX009 (ip), vehicle: saline 92 % of control

CCSC1=C(SCC)C1SCC
inactive: dose: 12.5 mg/kg/injection, schedule: Q04DX003 (ip), vehicle: Klucel (hydroxypropylcellulose) (HPC) 107 % of control | dose: 25.0 mg/kg/injection, schedule: Q04DX003 (ip), vehicle: Klucel (hydroxypropylcellulose) (HPC) 107 % of control | dose: 50.0 mg/kg/injection, schedule: Q04DX003 (ip), vehicle: Klucel (hydroxypropylcellulose) (HPC) 121 % of control | [2] 113 % of control

CCC1C2Cc3ccc(O)cc3C1(C)CCN2C (stereo unspecified)
inactive: dose: 12.5 mg/kg/injection, schedule: Q01DX005 (ip), vehicle: Klucel (hydroxypropylcellulose) (HPC) 100 % of control | dose: 25.0 mg/kg/injection, schedule: Q01DX005 (ip), vehicle: Klucel (hydroxypropylcellulose) (HPC) 99 % of control | [16] 102 % of control and 107 % of control

CN(CCCNc1c2ccccc2nc2ccccc12)CCCNc1c2ccccc2nc2ccccc12
inactive: dose: 1.25 mg/kg/injection, schedule: Q01DX009 (ip), vehicle: other 115 % of control

CCCCCCCCCCCCCCCCCCOCC(O)CN(CCO)CCO (stereo unspecified)
inactive: dose: 12.5 mg/kg/injection, schedule: Q01DX009 (ip), vehicle: Klucel (hydroxypropylcellulose) (HPC) 91 % of control | dose: 25.0 mg/kg/injection, schedule: Q01DX009 (ip), vehicle: Klucel (hydroxypropylcellulose) (HPC) 91 % of control | [15] 96 % of control
